{"source": "patent US10874600B2", "about": "“Method for degrading bilirubin in skin” (The Procter & Gamble Company, priority 2018, dated 2020)", "test": "Bilirubin degradation assay", "format": "biochemical", "conditions": "for Avg. IB at pH 3.8 / Avg. IB at pH 7.4: 25 μg/mL IB, 24-hr incubation at room temperature, average of triplicate; for Δ IB (actual): pH 3.8 vs reference value (pH 7.4, 0% niacinamide leg); for Δ IB (predicted): predicted additive effect of niacinamide at pH 7.4 plus observed pH effect 2.323", "description": "The bilirubin degradation assay provides an in vitro method of determining how a material or composition affects bilirubin degradation. Three replicates of each test sample are prepared in a 96-well plate (e.g., a FALCON brand 96-well tissue culture plate or equivalent) at a total volume of 250 μl/well. A stock of 250 ug/ml indirect bilirubin (i.e., the unconjugated form of bilirubin most commonly found in blood serum) is made by dissolving bilirubin powder (Cayman Chemicals Company, Catalog #17161) in DMSO (Sigma, Catalog # D8414-100 ml) to yield a stock solution at 10× working concentration. Working concentration of bilirubin is set at 25 ug/ml for every well except negative/vehicle control wells. […] The positive control wells may be prepared by mixing 25 ul of 250 ug/ml bilirubin stock solution and 225 ul PBS (AccuGENE, Catalog #51225). For negative/vehicle control wells, 25 ul DMSO is used in place of bilirubin. Test sample wells contain 25 ul of 250 ug/ml bilirubin stock solution, 200 ul PBS and 25 ul of each treatment solution made as 10× concentrate stock, e.g., for 0.1% Niacinamide treatment, a 10× concentrate stock is made at 1%.\nThe pH of each sample is adjusted using 1M HCl pH titration is performed separately before the experiment set up to determine how much 1M HCl is needed for each leg to achieve targeting pH level. 1500 ul of a master working solution of each testing leg was made without bilirubin to accommodate threshold volume need for pH adjustment. The master solution for the vehicle control wells contain 150 ul DMSO and 1350 ul of a mixture of 1M HCl and PBS. […] Bilirubin is unstable when exposed to ambient light. Thus, for bilirubin positive control well pre-titration, DMSO was used as surrogate for bilirubin. […] For pre-titration test sample wells, 1500 ul of master solution is made by mixing 150 ul DMSO (surrogate for bilirubin stock), 150 ul 10× treatment stock, and a 1200 ul mixture of 1M HCl and PBS. For actual experimental set up, make: 1350 ul pre-mix in triplicate for each leg, less either DMSO (for vehicle control leg) or bilirubin (for positive control and treatment legs) but with matching volume of all other ingredients as determined by pre-titration. Then for vehicle control leg, add 25 ul DMSO per well followed by adding in 225 ul of the pre-mix. For all other legs, add 25 ul of 250 ug/ml bilirubin stock made in DMSO per well followed by adding in 225 ul of corresponding pre-mix. […] The plate(s) containing the test samples are covered with aluminum foil and placed on top of a microplate shaker (VWR, Catalog #12620-938). Incubation was carried out at room temperature for 24-hr with constant shaking at 150 rpm. […] Commercially available bilirubin quantification kit (Cell Biolab, Catalog # MET-5010) was used for bilirubin quantification. The assay is based on the Jendrassik-Grof method in which diazotized sulfanilic acid reacts with bilirubin to form azobilirubin, the latter of which can be detected at an OD of 540 nm. A standard bilirubin curve is generated using the same bilirubin used for treatment and quantified.\nBilirubin concentrations of all testing legs are calculated using linear regression against the standard bilirubin curve. Resulting bilirubin concentrations are compared to neutral pH bilirubin reference leg. The difference in bilirubin quantification (A bilirubin) between the neutral-pH bilirubin reference leg and the low-pH niacinamide treated legs can be analyzed for predicted effect and actual effect.\nThe effect of niacinamide level on bilirubin degradation was tested at 0.1%, 0.5%, and 3%, by weight, based on the volume of the composition (w/v). A vehicle control is used in this Example as the negative control.", "data": [{"smiles": "NC(=O)c1cccnc1", "note": "[niacinamide]", "values": [{"measurement": "Avg. IB at pH 3.8", "setting": "0.1% (w/v) niacinamide", "value": 17.713, "unit": "μg/mL"}, {"measurement": "Avg. IB at pH 7.4", "setting": "0.1% (w/v) niacinamide", "value": 20.851, "unit": "μg/mL"}, {"measurement": "Δ IB (actual)", "setting": "0.1% (w/v) niacinamide", "value": 3.405}, {"measurement": "Δ IB (predicted)", "setting": "0.1% (w/v) niacinamide", "value": 2.590}, {"measurement": "Avg. IB at pH 3.8", "setting": "0.5% (w/v) niacinamide", "value": 14.231, "unit": "μg/mL"}, {"measurement": "Avg. IB at pH 7.4", "setting": "0.5% (w/v) niacinamide", "value": 20.185, "unit": "μg/mL"}, {"measurement": "Δ IB (actual)", "setting": "0.5% (w/v) niacinamide", "value": 6.887}, {"measurement": "Δ IB (predicted)", "setting": "0.5% (w/v) niacinamide", "value": 3.256}, {"measurement": "Avg. IB at pH 3.8", "setting": "3% (w/v) niacinamide", "value": 9.585, "unit": "μg/mL"}, {"measurement": "Avg. IB at pH 7.4", "setting": "3% (w/v) niacinamide", "value": 17.087, "unit": "μg/mL"}, {"measurement": "Δ IB (actual)", "setting": "3% (w/v) niacinamide", "value": 11.533}, {"measurement": "Δ IB (predicted)", "setting": "3% (w/v) niacinamide", "value": 6.354}, {"measurement": "reduction in bilirubin in the low-pH composition compared with predicted", "setting": "niacinamide in low-pH composition vs observed individual effects of pH and niacinamide level", "value": "much higher level than predicted"}]}]}
